In patent US20050267050A1, “Compositions and methods for treating mdma-induced toxicity” (YEDA RESEARCH AND DEVELOPMENT CO. LTD., priority 2002, published 2005):

What was measured:
[1] = system: MDMA acute toxicity in mice; experiment: Protective activity against MDMA acute toxicity (survival) in mice; type: in vivo, C57B1/6J mice; conditions: inhibitor i.p. 5-120 minutes before toxic dose of MDMA; FIG. 6A
Procedure: Next step was to determine whether compounds blocking the enhanced expression of GABA transporters may restraint MDMA-induced hyperthermia. We ran trials to determine whether the mortality levels causes by MDMA administration would be affected by treatment with suspected GABA transporter inhibiting compounds Tiagabine, nipecotic acid derivative NO-711, and Vigabatrin which have been used hitherto as anti-epileptics.
Mice were administered dose(s) of mg/ml of MDMA according to the following schedule and were […] injected with a dose of the GABA transporter blocker. In the first set of experiments the effective toxic dose of MDMA was determined. C57B1/6J mice, 2-3 months old, 6 mice in each group, were tested with different concentration of the drug, prepared in saline and injected intraperitoneally. Saline solution was used as a control. The lowest concentration of the drug causing 100% death within 60 minutes was used in the following experiments. Mice (8 in each group) were injected (i.p.) with different concentrations of the tested GABA transporter inhibitor, or other compound, and 5-120 minutes later were injected with the toxic dose of MDMA. […]

mGAT1 protein = experiment: Western immunoblotting with anti-GAT1 antibodies, MDMA-treated mice; type: in vivo; conditions: for GAT1 protein, fold of control: SERT knockout (−/−) mice; for Increase of GAT1 immunoreactivity: wild type mice
Procedure: (§1) Young adult male C57BI/6J mice (2-3 months old) were injected intraperitoneally with 0.25 ml saline (control) or saline containing MDMA (10 mg/kg). Unless otherwise indicated, mice were sacrificed 2 hr after drug treatment and frontal cortex and/or midbrain were rapidly dissected in ice-cold saline. The dissected brain tissue was frozen on dry ice, 0.5 ml Tri Reagent was added, and samples were stored at −70° C. Serotonin transporter knockout mice (−/−) (Bengel et al., 1998) were used when indicated.
Protein was isolated with Tri Reagent according to the protocol provided by the manufacturer. After precipitation with isopropanol, the protein pellet was washed three times with 0.3M guanidine hydrochloride and 95% ethanol, followed by washing with ethanol, dried, and dissolved in 10 M urea containing 50 mM dithiothreitol (DTT). Samples were kept at room temperature for 1 hr before boiling for 3 minutes, sonicated on ice for 2 minutes, and stored at −20° C. Protein concentration was determined with the micro BCA protein assay reagent kit. Samples of 30 μg protein run on SDS-PAGE (5% stacking gel and 8% or 10% separating gel), with Kaleidoscope pre-stained standard proteins as molecular weight markers. The proteins were transferred to nitrocellulose membranes preincubated for 2 hr in Tris-buffered saline (TBS) with 10% non-fat dry milk and 0.1% Tween 20, and incubated overnight at 4° C. or 2 hr at room temperature with anti-GAT1 antibodies (1:500 in TBS containing 5% non-fat dry milk). Membranes were then washed three times with TBS containing 0.1% Tween 20, incubated for 2 hr at room temperature with the second antibody, horseradish peroxidase coupled to F(ab)2 anti-rabbit IgG, washed four times with the same buffer, and subjected to ECL Western immublotting detection reagents.
It was essential to determine whether the MDMA-induced increase in mGAT1 mRNA was correlated with a similar change in protein level. […] These anti-GAT1 antibodies were also useful to verify MDMA effect on the expression of mGAT1 in the SERT knockout mice (−/−) that behaviorally are nonresponsive to MDMA (Bengel et al., 1998).

mGAT2 = experiment: Semi-quantitative RT-PCR of brain mRNA of MDMA-treated mice; type: in vivo
mGAT4 [2] = experiment: Real-time PCR analysis of midbrain RNA of MDMA-treated mice; type: in vivo
Procedure: as §1
(§2) Real-time PCR analysis was performed with the LightCycler System (Roche Molecular Biochemicals) and LightCycler-FastStart DNA Master SYBR Green I, according to the manufacturer instructions. Reactions (in 20 μl) included template cDNA prepared from 0.1-0.5 μg total RNA, 3 mM MgCl2 and 0.25-0.5 μM primers. Buffer, dNTP mixture (with dUTP instead of dTTP), Taq DNA polymerase, and SYBR Green I dye were included in the ‘Hot start’ reaction as recommended. Typical protocol was as follows. Ten minutes at 95° C. followed by 40 cycles of amplification, starting with 15 sec at 95° C., 10 sec at 60° C. and 10 sec at 72° C. The extension period varied with each specific primer, depending on the product length (about 1 sec/25 bp).
(§3) For quantification analysis, 3-5 standards of PCR products with known concentration were amplified under the same cycling conditions, and GAPDH was amplified as an internal control to correct for variations in the amount of cDNA. Real-time PCR products of each assay were also subjected to agarose gel electrophoresis, to further confirm amplification specificity. Quantitation was assessed with LightCycler Data Analysis (LCDA) software by the Fit Points method. Melting curve of the cDNA product was determined by incubation at 95° C. for 0 sec, 15 sec at 65° C. and 0 sec at 95° C., followed by a cooling of 30 sec at 40° C.
(§4) RNA extracted from the midbrain of saline- or MDMA-treated mice was analyzed with the LightCycler System, using specific primers for mGAT1 and mGAT4, along with GAPDH as a control (see Materials and Methods). […] (FIG. 4F).

GAPDH = experiment: as above; type: in vivo
Procedure: as §1, §2, §3, §4

mGAT1 [3] = experiment: as above; type: in vivo
Procedure: as §1, §2, §3, §4

MG3 cDNA = experiment: DD-PCR analysis of brain mRNA of MDMA-treated mice; type: in vivo; design: key: − (lowest); ++ (highest); conditions: MDMA one i.p. injection, 10 mg/kg, 2 hr
Procedure: as §1
(§5) Frontal cortex or midbrain samples frozen with Tri Reagent were crushed, 1 ml Tri Reagent was added and total RNA was isolated according to the manufacture's protocol. RNA samples were treated with RNase-free DNase I for 30 minutes at 37° C. and RNA quality and yield was verified on 1.2% formaldehyde agarose gel. First-strand cDNA was prepared from 0.5 μg total RNA as template and 0.8 μM (dT)12GC, (dT)12CC or oligo(dT)18 as a primer, using Superscript amplification kit. DD-PCR (differential display-PCR) was carried out in 20 μl total volume, and included 0.8 μM of one of the 3′ primers (dT)12GC, (dT)12CC or (dT)12, the arbitrary 5′ primer 5′-GGACAGCTTC-3′, 2.5 μM dNTP, 2.5 mM MgCl2, 2 μCi α-^33P-[dATP] (3000 Ci/mM), cDNA prepared from 50 ng total RNA, and 2.5 units of Taq DNA polymerase. The DD-PCR reaction was started with 3 minutes incubation at 94° C., followed with 40 cycles of 30 sec at 94° C., 2 minutes at 40° C. and 30 sec at 72° C., and finally 5 minutes at 72° C. Then, 10 μl of the reaction was mixed with 10 μl of 95% formamide containing 0.05% bromophenol blue and 0.05% xylene cyanol, and incubated for 5 minutes at 75° C. An aliquot (6 μl) was analysed on a denatured DNA sequencing gel. The gel was dried and exposed to Phosphoimage Analyzer (Fujix) or to X-ray film. The DNA bands expressed differentially upon MDMA-treatment were identified, cut from the gel, socked in H2O, boiled for 15 minutes and centrifuged (10000 g). Ten μl of the supernatant was used as template to re-amplify the band of interest, with the same primers and PCR conditions described for DD-PCR except that 25 μM dNTP and no isotopes were used. Ten μl of the PCR reaction was run on a 2% agarose gel. The band of the predicted size was excised, purified with DNA extraction kit, and cloned into pGEM-T Easy Vector. Plasmid DNA from successful clones was purified with Plasmid Mini Kit and subjected for sequencing (Biological Services, Weizmann Institute of Science). Sequence data were compared with GeneBank (NCBI).
(§6) Total RNA from frontal cortex (“FC”) and midbrain (“MB”) of saline—(denoted as “−”) and MDMA-treated (denoted as “+”) mice (one i.p. injection, 10 mg/kg, 2 hr) were used for DD-PCR analysis. The random primers used were dT12CC for MC1, dT12GG for MG3, MG4, MG5 and MG6, and dT18 for G1. Different but characteristic cDNA products were obtained with each one of the three primers. […] Some of the altered expression levels are common for both brain regions while others are specific either to the frontal cortex or the midbrain.

MC2 cDNA = experiment: DD-PCR analysis of brain mRNA of MDMA-treated mice; type: in vivo; design: key: − (lowest); ++ (highest); conditions: MDMA one i.p. injection, 10 mg/kg, 2 hr
Procedure: as §1, §5, §6

MG2 cDNA = experiment: DD-PCR analysis of brain mRNA of MDMA-treated mice; type: in vivo; design: key: − (lowest); ++ (highest); conditions: MDMA one i.p. injection, 10 mg/kg, 2 hr; frontal cortex
Procedure: as §1, §5, §6

MG5 cDNA = experiment: DD-PCR analysis of brain mRNA of MDMA-treated mice; type: in vivo; design: key: − (lowest); ++ (highest); conditions: MDMA one i.p. injection, 10 mg/kg, 2 hr
Procedure: as §1, §5, §6

MC1 cDNA = experiment: DD-PCR analysis of brain mRNA of MDMA-treated mice; type: in vivo; design: key to Intensity of MC1 cDNA band, MDMA, F. Cortex / Intensity of MC1 cDNA band, MDMA, MidBrain: − (lowest); ++ (highest); conditions: 2 hr
Procedure: as §1
as §5, with “Ten μl of the supernatant was used as template to re-amplify the band of interest, with the same primers and PCR conditions described for DD-PCR except that 25 μM dNTP and no isotopes were used. Ten μl of the PCR reaction was run on a 2% agarose gel. The band of the predicted size was excised, purified with DNA extraction kit, and cloned into pGEM-T Easy Vector. Plasmid DNA from successful clones was purified with Plasmid Mini Kit and subjected for sequencing (Biological Services, Weizmann Institute of Science). Sequence data were compared with GeneBank (NCBI).” left out

mGAT1 [4] = experiment: Semi-quantitative RT-PCR of brain mRNA of MDMA-treated mice; type: in vivo; conditions: for Increase of mGAT1 expression, estimated by scanning: MDMA 10 mg/kg i.p., 2 hr, GAPDH as standard
mGAT4 [5] = experiment: as above; type: in vivo; conditions: for Increase of mGAT4 mRNA level: MDMA 10 mg/kg i.p., 2 hr, GAPDH for semi-quantitation; for Return of mGAT4 increase to control levels: within 2 days
MC2, MG2 and MG4 cDNAs = experiment: as above; type: in vivo; conditions: FIG. 2B, MDMA 10 mg/kg i.p., 2 hr
G1 cDNA (mGAT1) = experiment: DD-PCR analysis of brain mRNA of MDMA-treated mice; type: in vivo; design: key to Intensity of G1 cDNA band, MDMA, F. Cortex: − (lowest); ++ (highest); conditions: 2 hr
Procedure: as §1
Frontal cortex or midbrain samples frozen with Tri Reagent were crushed, 1 ml Tri Reagent was added and total RNA was isolated according to the manufacture's protocol. RNA samples were treated with RNase-free DNase I for 30 minutes at 37° C. and RNA quality and yield was verified on 1.2% formaldehyde agarose gel. First-strand cDNA was prepared from 0.5 μg total RNA as template and 0.8 μM (dT)12GC, (dT)12CC or oligo(dT)18 as a primer, using Superscript amplification kit. DD-PCR (differential display-PCR) was carried out in 20 μl total volume, and included 0.8 μM of one of the 3′ primers (dT)12GC, (dT)12CC or (dT)12, the arbitrary 5′ primer 5′-GGACAGCTTC-3′, 2.5 μM dNTP, 2.5 mM MgCl2, 2 μCi α-^33P-[dATP] (3000 Ci/mM), cDNA prepared from 50 ng total RNA, and 2.5 units of Taq DNA polymerase. […] An aliquot (6 μl) was analysed on a denatured DNA sequencing gel. […]

[6] = MDMA one i.p. injection, 10 mg/kg, frontal cortex
[7] = both frontal cortex and midbrain, MDMA 10 mg/kg i.p.

## Cc1ccsc1C(=CCCN1CCC[C@@H](C(=O)O)C1)c1sccc1C [Tiagabine, (R)-1-[4,4-Bis(3-methyl-2-thienyl)-3-butenyl]-3-piperidinecarboxylic acid]
[1]
  Survival of MDMA-treated mice: significantly improved the survival

## CNC(C)Cc1ccc2c(c1)OCO2 (centres unmarked) [MDMA, 3,4-Methylenedioxymethamphetamine]
mGAT1 protein; frontal cortex
  GAT1 protein, fold of control: 1.3 fold
  Increase of GAT1 immunoreactivity: 2.1 fold
mGAT1 protein; midbrain
  GAT1 protein, fold of control: 1.0 fold
  Increase of GAT1 immunoreactivity: 2.4 fold
mGAT1 protein; SERT −/− mice
  Induction of GAT1 protein upon MDMA treatment: no significant induction
mGAT2; MDMA 10 mg/kg i.p., 2 hr, frontal cortex and midbrain
  Effect on mGAT2 expression: insignificant effect
mGAT2; from 2 hours to 7 days after treatment
  mGAT2 expression in time course: did not change
mGAT4 [2]
  Increase in mGAT4/GAPDH ratio compared with controls: 1.52 fold
GAPDH
  Increase of GAPDH level: 19%
GAPDH; control 514×10^−5 pmole
  GAPDH level after MDMA treatment (real-time PCR amount): 0.00612 pmol
mGAT1 [3]
  Net increase in mGAT1 levels (corrected for GAPDH): 5.2 fold
mGAT1 [3]; control 3.43×10^−5 pmole
  mGAT1 expression after MDMA treatment (real-time PCR amount): 0.000211 pmol
MG3 cDNA; frontal cortex
  Intensity of MG3 cDNA band, MDMA, F. Cortex: −
MG3 cDNA; midbrain
  Intensity of MG3 cDNA band, MDMA, MidBrain: −
MC2 cDNA
  Intensity of MC2 cDNA band, MDMA, MidBrain: ++
MG2 cDNA
  Intensity of MG2 cDNA band, MDMA, F. Cortex: ++
MG5 cDNA; frontal cortex
  Intensity of MG5 cDNA band, MDMA, F. Cortex: −
MG5 cDNA; midbrain
  Intensity of MG5 cDNA band, MDMA, MidBrain: −
MC1 cDNA; [6]
  Intensity of MC1 cDNA band, MDMA, F. Cortex: −
MC1 cDNA; MDMA one i.p. injection, 10 mg/kg, midbrain
  Intensity of MC1 cDNA band, MDMA, MidBrain: −
MC1 cDNA; [7]
  Change of cDNA band MC1 in MDMA-treated mice (FIG. 1B): profound decrease
mGAT1 [4]; frontal cortex
  Increase of mGAT1 expression, estimated by scanning: 1.58 fold
mGAT1 [4]; midbrain
  Increase of mGAT1 expression, estimated by scanning: 1.74 fold
mGAT1 [4]; time course 2 hours-7 days after treatment
  Time for which MDMA effect on mGAT1 expression sustained: 7 days
mGAT4 [5]; frontal cortex
  Increase of mGAT4 mRNA level: 4.6 fold
  Return of mGAT4 increase to control levels: partially
mGAT4 [5]; midbrain
  Increase of mGAT4 mRNA level: 1.7 fold
  Return of mGAT4 increase to control levels: completely
MC2, MG2 and MG4 cDNAs
  MDMA-induced changes of MC2, MG2 and MG4 expression: 1.5-2.2 fold
G1 cDNA (mGAT1); [6]
  Intensity of G1 cDNA band, MDMA, F. Cortex: ++
G1 cDNA (mGAT1); [7]
  Change of intensity of cDNA G1 in MDMA-treated mice (FIG. 1C): increased
